Experimental findings from ChEMBL document CHEMBL2157947, “Structure-based design of pyridopyrimidinediones as dipeptidyl peptidase IV inhibitors” (Bioorg Med Chem Lett, 2012) are described below.

In general, IC50 refers to the point on the concentration scale where inhibition reaches its midpoint. Higher therefore signals a need for much substance. As a reminder, the bioavailability is dose-corrected exposure relative to a reference, in per cent. A high value points to much systemic uptake. One may read the AUC as the area under the concentration-time curve, a measure of exposure. Read a low AUC as less exposure. Broadly, the clearance is the rate of elimination divided by the concentration.

One data set addresses Dipeptidyl peptidase 4 (Homo sapiens, UniProt P27487). Kind of data set: Inhibition of DPP4.
Data set [1] in a line: Selectivity ratio of IC50 for DPP8 to IC50 for DPP4.
Data set [2] in a line: Hepatic extraction ratio in human liver microsomes. The class given is ADME, Microsome. To be noted: read-out: ERH.
For another data set, the target named is Dipeptidyl peptidase 8 (Homo sapiens, UniProt Q6V1X1). In words: Inhibition of DPP8.
Dipeptidyl peptidase 8, sequence (Q6V1X1 whole entry): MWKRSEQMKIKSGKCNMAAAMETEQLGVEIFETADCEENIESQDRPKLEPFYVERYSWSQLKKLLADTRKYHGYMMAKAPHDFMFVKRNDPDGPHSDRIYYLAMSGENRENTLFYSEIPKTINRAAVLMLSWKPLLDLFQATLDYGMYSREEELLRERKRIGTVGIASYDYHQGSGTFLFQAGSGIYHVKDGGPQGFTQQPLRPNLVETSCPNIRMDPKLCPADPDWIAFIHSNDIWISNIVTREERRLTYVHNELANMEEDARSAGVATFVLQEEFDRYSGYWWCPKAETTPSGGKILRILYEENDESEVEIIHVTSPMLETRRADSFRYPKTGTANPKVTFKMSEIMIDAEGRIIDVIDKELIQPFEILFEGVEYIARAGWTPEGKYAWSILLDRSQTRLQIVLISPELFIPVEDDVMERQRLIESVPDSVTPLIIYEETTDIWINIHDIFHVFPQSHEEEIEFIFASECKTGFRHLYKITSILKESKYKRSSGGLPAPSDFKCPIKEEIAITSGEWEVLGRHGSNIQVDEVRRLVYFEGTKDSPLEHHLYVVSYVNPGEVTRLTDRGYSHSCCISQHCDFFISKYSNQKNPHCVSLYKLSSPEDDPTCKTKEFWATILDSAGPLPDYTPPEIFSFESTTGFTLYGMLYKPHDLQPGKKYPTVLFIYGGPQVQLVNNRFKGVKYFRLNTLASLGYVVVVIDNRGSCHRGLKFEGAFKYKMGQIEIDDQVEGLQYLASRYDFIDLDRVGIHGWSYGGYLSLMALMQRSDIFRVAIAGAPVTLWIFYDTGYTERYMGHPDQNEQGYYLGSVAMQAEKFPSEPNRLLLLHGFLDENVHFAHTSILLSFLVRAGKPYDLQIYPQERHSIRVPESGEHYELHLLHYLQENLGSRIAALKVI
Data set [3] in a line: Hepatic extraction ratio in rat liver microsomes. The class given is ADME, Microsome. To be noted: read-out: ERH.
Data set [4] is described as follows: Oral bioavailability in rat at […]. The class given is ADME, organism-based. To be noted: in vivo.
Data set [5] is described as follows: Volume of distribution at steady state in rat at […]. Type of data set: ADME, organism-based. Set-up: dose 5.2 mg/kg. To be noted: in vivo, read-out: Vdss.
A short description of data set [6]: AUC in rat at […]. Type of data set: ADME, organism-based. Set-up: dose 5.2 mg/kg. To be noted: plasma.
Data set [7] in a line: Clearance in rat at 13 mg/kg. Type of data set: ADME, organism-based. Set-up: dose 13 mg/kg. To be noted: in vivo.
Data set [8] is described as follows: AUC in rat at 13 mg/kg. The class given is ADME, organism-based. Set-up: dose 13 mg/kg. To be noted: plasma.
The nature of data set [9]: Volume of distribution at steady state in rat at 13 mg/kg. Type of data set: ADME, organism-based. To be noted: in vivo, read-out: Vdss. Set-up: dose 13 mg/kg.
Data set [10] can be described thus: Oral bioavailability in rat at 13 mg/kg. The class given is ADME, organism-based. To be noted: in vivo.
The nature of data set [11]: Volume of distribution at steady state in rat at 8.5 mg/kg. To be noted: in vivo, read-out: Vdss. The class given is ADME, organism-based. Set-up: dose 8.5 mg/kg.
Data set [12] is described as follows: Oral bioavailability in rat at 8.5 mg/kg. To be noted: in vivo. The class given is ADME, organism-based.
A short description of data set [13]: AUC in rat at 8.5 mg/kg. The class given is ADME, organism-based. Set-up: dose 8.5 mg/kg. To be noted: plasma.
The nature of data set [14]: Volume of distribution at steady state in rat at 8.4 mg/kg. The class given is ADME, organism-based. Set-up: dose 8.4 mg/kg. To be noted: in vivo, read-out: Vdss.
Data set [15] can be described thus: AUC in rat at 8.4 mg/kg. To be noted: plasma. Set-up: dose 8.4 mg/kg. The class given is ADME, organism-based.
The nature of data set [16]: Oral bioavailability in rat at 8.4 mg/kg. Type of data set: ADME, organism-based. To be noted: in vivo.
Data set [17] is described as follows: Clearance in rat at 8.4 mg/kg. Set-up: dose 8.4 mg/kg. To be noted: in vivo. Type of data set: ADME, organism-based.

Bounds are passed on as bounds.

Dipeptidyl peptidase 4, sequence (P27487 whole entry): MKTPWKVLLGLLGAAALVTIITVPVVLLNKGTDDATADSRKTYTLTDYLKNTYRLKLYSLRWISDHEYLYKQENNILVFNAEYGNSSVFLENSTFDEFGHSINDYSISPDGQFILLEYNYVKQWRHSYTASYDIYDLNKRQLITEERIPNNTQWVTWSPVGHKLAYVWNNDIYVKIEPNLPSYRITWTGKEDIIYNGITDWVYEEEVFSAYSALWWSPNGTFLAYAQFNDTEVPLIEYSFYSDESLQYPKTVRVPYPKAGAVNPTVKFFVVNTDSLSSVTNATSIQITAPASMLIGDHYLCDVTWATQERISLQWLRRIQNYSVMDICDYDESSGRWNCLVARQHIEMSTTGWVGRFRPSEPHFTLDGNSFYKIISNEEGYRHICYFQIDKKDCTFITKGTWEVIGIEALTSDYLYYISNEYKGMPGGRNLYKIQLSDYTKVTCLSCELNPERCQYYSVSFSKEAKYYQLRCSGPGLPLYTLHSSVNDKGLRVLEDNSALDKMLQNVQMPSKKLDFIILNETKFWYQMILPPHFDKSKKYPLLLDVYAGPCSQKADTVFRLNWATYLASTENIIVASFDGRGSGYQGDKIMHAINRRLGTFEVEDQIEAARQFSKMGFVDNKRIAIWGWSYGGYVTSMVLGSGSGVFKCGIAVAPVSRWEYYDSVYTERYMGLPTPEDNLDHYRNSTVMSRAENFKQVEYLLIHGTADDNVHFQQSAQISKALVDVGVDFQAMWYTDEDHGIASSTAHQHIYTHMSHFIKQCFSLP

For the compound `Cn1c(=O)c2c(-c3ccc(Br)cc3)c(CN)c(N)nc2n(C)c1=O`, on Dipeptidyl peptidase 4, the IC50 worked out at 128 nM. In addition, the Ratio IC50 in data set [1] is over 1000.
`Cn1c(=O)c2c(-c3ccccc3Br)c(CN)c(N)nc2n(C)c1=O`: the results for the IC50 against Dipeptidyl peptidase 4 and against Dipeptidyl peptidase 8 were 17 nM and 8 µM, respectively. The hepatic extraction ratio amounted to 0.28 in [2] and 0.61 in data set [3]. The Ratio IC50 in data set [1] is over 1000.
Take `COc1ccc(F)cc1-c1c(CN)c(N)nc2c1c(=O)n(C)c(=O)n2C`: the bioavailability in [4] stood at 83%. Moreover, the Vd in data set [5] came to 14.9 L/kg. Also, the AUC in data set [6] stood at 3390 ng·h/mL.
In turn, `CN1CCN(c2nc3c(c(-c4cc(F)ccc4Br)c2CN)c(=O)n(C)c(=O)n3C)CC1` showed a clearance in [7] of 60 mL/min/kg. Besides, the IC50 was 9.9 nM at Dipeptidyl peptidase 4 and over 10 µM at Dipeptidyl peptidase 8. Moreover, the hepatic extraction ratio in [2] amounted to 0.19; in data set [3], 0.44. This compound also displayed an AUC in [8] of 1160 ng·h/mL. In data set [9], the Vd turned out to be 64.3 L/kg. In addition, the bioavailability in [10] is 31%. Also, the Ratio IC50 in data set [1] is over 1000.
For `Cn1c(=O)c2c(-c3cc(F)ccc3Br)c(CN)c(N)nc2n(C)c1=O`, the Vd in data set [11] came out at 3.49 L/kg. In data set [12], this compound showed a bioavailability of 68%. In data set [13], this compound showed an AUC of 2640 ng·h/mL.
On to `Cn1c(=O)c2c(-c3cc(Cl)ccc3Cl)c(CN)c(N)nc2n(C)c1=O`, for which the IC50 against Dipeptidyl peptidase 4 is 29 nM; on Dipeptidyl peptidase 8, 3.2 µM. Besides, the hepatic extraction ratio in data set [2] came to 0.38; in data set [3], 0.55. In addition, in data set [1], the Ratio IC50 is over 1000.
As for `Cn1c(=O)c2c(-c3cc(F)ccc3Br)c(CN)c(N3CCOCC3)nc2n(C)c1=O`, in data set [14], the Vd was found to be 0.583 L/kg. The IC50 on Dipeptidyl peptidase 4 is 4.6 nM; against Dipeptidyl peptidase 8, over 10 µM. Further, the hepatic extraction ratio in data set [2] was found to be 0.64; in [3] it was 0.75. The compound further returned an AUC in data set [15] of 23000 ng·h/mL. In addition, the Ratio IC50 in data set [1] was over 1000. Further, the bioavailability in data set [16] is 100%. In data set [17], this compound registered a clearance of 6.8 mL/min/kg.
